A short description of data set [1]: xn = mol fraction of the nth substance listed. The conditions noted are these: 101 kPa, Liquid, Pycnometric method, x1 = 1.
For data set [2] the following is noted: 101 kPa, Liquid, Pycnometric method.

Each structure is given as a SMILES string. Numbers after ± are expanded uncertainties.

In general, mass density refers to the mass of a sample divided by its volume. Turning to `CC#N` [acetonitrile] + C=CC(=O)OCC, the mass density in data set [1] (293.15 K) is 782.12 ± 1 kg/m3; in data set [1] (298.15 K), 776.82 ± 1 kg/m3; in data set [1] (303.15 K) it was 771.52 ± 1 kg/m3; in data set [1] (308.15 K) it was 766.21 ± 1 kg/m3; in data set [1] (313.15 K), 760.9 ± 1 kg/m3; in data set [1] (318.15 K) it was 755.59 ± 1 kg/m3.

Turning to `CC#N` [acetonitrile] + C=CC(=O)OC, the mass density in data set [1] (293.15 K) was determined as 782.12 ± 1 kg/m3; in data set [1] (298.15 K) it was 776.82 ± 1 kg/m3; in data set [1] (303.15 K), 771.52 ± 1 kg/m3; in data set [1] (308.15 K), 766.21 ± 1 kg/m3; in data set [1] (313.15 K), 760.9 ± 1 kg/m3; in data set [1] (318.15 K), 755.59 ± 1 kg/m3.

`CC#N` [acetonitrile]: the mass density in data set [2] (293.15 K) is on record as 782.12 ± 1 kg/m3; in data set [2] (298.15 K) it was 776.82 ± 1 kg/m3; in data set [2] (303.15 K), 771.52 ± 1 kg/m3; in data set [2] (308.15 K) it was 766.21 ± 1 kg/m3; in data set [2] (313.15 K), 760.9 ± 1 kg/m3; in data set [2] (318.15 K), 755.59 ± 1 kg/m3.

For `CC#N` [acetonitrile] + C=CC(=O)OC(C)(C)C, the mass density in data set [1] (293.15 K) is reported as 782.12 ± 1 kg/m3; in data set [1] (298.15 K) it was 776.82 ± 1 kg/m3; in data set [1] (303.15 K) it was 771.52 ± 1 kg/m3; in data set [1] (308.15 K) it was 766.21 ± 1 kg/m3; in data set [1] (313.15 K), 760.9 ± 1 kg/m3; in data set [1] (318.15 K), 755.59 ± 1 kg/m3.

Regarding `C=CC(=O)OC(C)(C)C` [tert-butyl acrylate], the mass density was 884.13 ± 1 kg/m3 in data set [2] (293.15 K); 879.66 ± 1 kg/m3 in data set [2] (298.15 K); 875.2 ± 1 kg/m3 in data set [2] (303.15 K); 870.74 ± 1 kg/m3 in data set [2] (308.15 K); 866.28 ± 1 kg/m3 in data set [2] (313.15 K); 861.82 ± 1 kg/m3 in data set [2] (318.15 K).

On to `CC#N` [acetonitrile] + C=CC(=O)OCCCC, for which the mass density was 782.12 ± 1 kg/m3 in data set [1] (293.15 K); 776.82 ± 1 kg/m3 in data set [1] (298.15 K); 771.52 ± 1 kg/m3 in data set [1] (303.15 K); 766.21 ± 1 kg/m3 in data set [1] (308.15 K); 760.9 ± 1 kg/m3 in data set [1] (313.15 K); 755.59 ± 1 kg/m3 in data set [1] (318.15 K).

The values are drawn from the NIST ThermoML archive (doi:10.1016/j.jct.2016.08.026).
